In general, Kd refers to a measure of binding affinity in units of concentration.

Each structure is given as a SMILES string. Where two headings read alike, the source gives them in different places.

One assay addresses pre-miR-21 WT. Briefly: Microscale thermophoresis (MST) binding to pre-miR-21 WT. To be noted: read-out: Kd, binding of the pre-miR-21 RNA Dicer site. Here is the method: (§1) Microscale Thermophoresis (MST) Binding Measurements. MST fluorescent measurements were performed on a Monolith NT.115 system (NanoTemper Technologies) using the fluorescence of a miR-21 hairpin (A+U Bulge): (5′ Cy5-[…]-3′) (SEQ ID NO: 1) or a miR-21 base paired control (5′ Cy5-[…]-3′) (SEQ ID NO: 2) which were purchased from IDT with RNase-free HPLC purification and used without further purification. The RNA (5 nM) was diluted in 1×MST Buffer (8 mM Na2HPO4, 190 mM NaCl, 1 mM EDTA, and 0.05% (v/v) Tween-20) and folded by heating at 60° C. for 5 min, and slowly cooling to room temperature. Compounds 1 and 2 were diluted in 1×MST Buffer, followed by 1:3 dilutions in 1×MST Buffer containing 5 nM RNA. […] Fluorescence measurements (Ex: 605-645 nm, Em: 680-685 nm) were performed at 10% LED and 80% MST power, with a Laser-On time of 30 s and Laser-Off time of 5 s. The data were analyzed by thermophoresis analysis and fitted by the quadratic binding equation in MST analysis software (NanoTemper Technologies). Dissociation constants were then determined by curve fitting using a single-site model. Normalized MST signal was calculated by normalizing the fluorescent signals using the MST data of 1 binding to pre-miR-21 WT with the lowest signal as 0 and the highest fluorescent signal as 1.
On the technique in general: MST reads how a fluorescent partner responds to local heating, with and without ligand.

The next assay deals with pre-miR-21 BP. Nature of the assay: MST binding to pre-miR-21 BP (base paired control). The settings on record: addition of 100 μM of compound. On the procedure:
as §1

Assay [1] relates to pre-miR-21 WT RNA. Nature of the assay: In vitro Dicer processing of pre-miR-21 WT. Format: biochemical. The source says: (§2) In vitro Dicer processing. […] Cleavage products were resolved on a denaturing 15% polyacrylamide gel, which was imaged using a Molecular Dynamics Typhoon phosphorimager and quantified with Bio-Rad's QuantityOne software, normalizing to full length RNA.

Another assay deals with pre-miR-21 BP RNA. Nature of the assay: In vitro Dicer processing of pre-miR-21 BP. Type of assay: biochemical.
Excerpt: as §2

Assay [2] concerns pre-miR-21. Briefly: RT-qPCR of mature miR-21 and pre-miR-21 levels in MDA-MB-231 cells. Type of assay: cell-based, human. The settings on record: for effect on mature miR-21 levels / effect on pre-miR-21 levels: MDA-MB-231, RT-qPCR. On the procedure: Cell culture compound treatment and transfection. For treatment with compounds, stocks in DMSO or water were diluted in growth media and added to cells for 24-72 h. For transfection of plasmid DNA to overexpress the miR-21 hairpin precursor in pcDNA3.1 (Addgene 21114) or pcDNA3-RNaseL (R. H. Silverman, Cleveland Clinic^24) in 24-well plates, Lipofectamine 2000 was used according to the manufacturer's protocol. After transfection, the medium was removed and replaced with growth medium containing compound prepared as described above. For transfection of a control (Santa Cruz Biotechnology: sc-37007) or RNase L targeting siRNA (Santa Cruz Biotechnology: sc-45965), Lipofectamine RNAiMAX Reagent was used for transfection of oligonucleotides, including 2′-5′ A4, according to the manufacturer's protocol.

The subject of assay [3] is pre-miR-21. Briefly: Cellular Chem-CLIP / C-Chem-CLIP in MDA-MB-231 cells. The settings on record: for enrichment of the pre-miR-21 transcript by Chem-CLIP: MDA-MB-231, RT-qPCR. Format: cell-based, human. Here is the method: Cellular Chem-CLIP/C-Chem-CLIP. The MDA-MB-231 cells were grown to ˜70% confluency as monolayers in 60 mm dishes. The cells were treated with Chem-CLIP compounds (8 or 9) and/or non-cross-linking competitors (1 or 2) for 48 h. Total RNA was extracted using a Quick-RNA MiniPrep Kit (Zymo Research) per the manufacturer's protocol. Approximately 20-30 μg of total RNA was then incubated with 100 μL of streptavidin-agarose beads (Sigma-Aldrich) and shaken for 1 h at room temperature. The solution was removed beads washed six times with 1×PBS. The RNA bound to beads was released, purified, and used for RT-qPCR as previously described^23. Relative fold enrichment of the measured RNA before and after pulldown was measured using equation 3 (Eq. 3): Relative Fold Enrichment=2^−(ΔC^t^before pulldown−ΔC^t^after pulldown) (Eq. 3)
where “ΔCt before pulldown” is the difference between the Ct values for the RNA of interest and a housekeeping gene in total RNA from cells and “ΔCt after pulldown” is the difference between the Ct values for the RNA of interest and the same housekeeping gene in RNA after pulldown.
(In general: Real-time PCR tracks product formation cycle by cycle.)

Assay [4] relates to pre-miR-21 WT RNA. Nature of the assay: In vitro Chem-CLIP pulldown. Type of assay: binding. Here is the method: In vitro Chemical Cross-linking and Isolation by Pull Down (Chem-CLIP) and Competitive Chemical Cross-linking and Isolation by Pull Down (C-Chem-CLIP). RPMI growth medium was heat inactivated at 95° C. for 15 min and then cooled to room temperature. Approximately 10,000 counts of ^32P 5′-end labeled miR-21 precursor hairpin RNA (pre-miR-21 WT) was folded in growth medium at 95° C. for 1 min. After cooling to room temperature, dilutions of Chem-CLIP probes 8 or 9^23 were added and incubated at 37° C. for 18 h. Alternatively, for C-Chem-CLIP, dilutions of competing non-cross-linking parent compounds, 1 or 2, were incubated with RNA for 1 h before addition of Chem-CLIP probe compounds. Streptavidin-agarose beads (Sigma-Aldrich) were then used to pulldown RNA. Samples were then washed with 1×PBS supplemented with 0.1% (v/v) Tween-20 and bound and unbound RNA radioactivity measured using a Beckman Coulter LS6500 Liquid Scintillation Counter as previously described^23.

In a further assay the test system is pre-miR-210. Nature of the assay: RT-qPCR of pre-miR-210 and miR-210 in hypoxic MDA-MB-231 cells. Type of assay: cell-based, human. The settings on record: hypoxic MDA-MB-231, RT-qPCR.

Take `CN1CCN(c2ccc(-c3ccc4[nH]c(-c5ccc(OCCCC(=O)NCCCN=[N+]=[N-])cc5)nc4c3)cc2)CC1` [Compound 1]: the dissociation constant (Kd) at pre-miR-21 WT turned out to be 20 µM. The “saturation of the binding isotherm” value in the assay with pre-miR-21 BP is “No saturation of the binding isotherm was observed”. Also, the “inhibition of / protection from Dicer processing” value in the assay on pre-miR-21 WT RNA [1] was “Protection with compound is observed at U23 (boxes marked with arrows) and U26 and U27”. For the same compound, the “inhibition of / protection from Dicer processing” value with pre-miR-21 WT RNA [1] (listed as Formula 1) is “inhibited in vitro Dicer processing”. Moreover, in the assay with pre-miR-21 BP RNA, the “protection from Dicer processing” value was “Protection with compound is observed at U26 and U27”. In the assay on pre-miR-21 [2] (10 μM, MDA-MB-231), the “increase of pre-miR-21 levels” value is recorded as 1.3 fold and the “inhibition of miR-21 production” value is 50%. In the assay on pre-miR-21 [2], the “effect on mature miR-21 levels” value is “inhibits mature miR-21-5p biogenesis” and the “effect on pre-miR-21 levels” value is “boosts levels of pre-miR-21”. Besides, the “competition of Chem-CLIP enrichment (C-Chem-CLIP)” value in the assay on pre-miR-21 [3] (MDA-MB-231, versus probe 8) is on record as “enrichment is depleted”.
`C#CCN(CC(=O)N(CCC)CC(=O)N(CCC)CC(=O)N(CCC)CC(=O)N(CC#C)CC(=O)NCCOCCOCCOCCOc1ccc(C=C2SC(Nc3ccccc3)=C(C(=O)OCC)C2=O)cc1O)C(C)=O` [Compound 6]: the “effect on mature miR-21 levels” value with pre-miR-21 [2] was “inactive”.
For `CCCN(CC(=O)N(CCC)CC(=O)N(CCC)CC(=O)N(CC(=O)NCCOCCOCCOCCOc1cc(C=C2SC(Nc3ccccc3)=C(C(=O)OCC)C2=O)ccc1O)Cc1cn(CCCNC(=O)CCCOc2ccc(-c3nc4cc(-c5ccc(N6CCN(C)CC6)cc5)ccc4[nH]3)cc2)nn1)C(=O)CN(Cc1cn(CCCNC(=O)CCCOc2ccc(-c3nc4cc(-c5ccc(N6CCN(C)CC6)cc5)ccc4[nH]3)cc2)nn1)C(C)=O` [Compound 7], in the assay on pre-miR-21 [2], the “effect on mature miR-21 levels” value is “decreased miR-21 levels” and the “effect on pre-miR-21 levels” value was “increased pre-miR-21 levels”. Besides, the “effect on mature miR-21 levels” value with pre-miR-21 [2] (listed as Formula 7) is reported as “did not have enhanced activity over Formula 2”.
As to `CC(=O)N(CCNC(=O)CCCc1ccc(N(CCCl)CCCl)cc1)CC(=O)N(CC(=O)N(CCNC(=O)CCCCC1SCC2NC(=O)NC21)CC(N)=O)Cc1cn(CCCNC(=O)CCCOc2ccc(-c3nc4cc(-c5ccc(N6CCN(C)CC6)cc5)ccc4[nH]3)cc2)nn1` (stereo not drawn) [Compound 8], the “enrichment of pre-miR-21 by Chem-CLIP pulldown” value with pre-miR-21 [3] (10 μM, MDA-MB-231) is on record as roughly 2.5 fold. In addition, in the assay on pre-miR-21 [3] (10 μM), the “enrichment of the pre-miR-21 transcript by Chem-CLIP” value is listed as “enrichment for the pre-miR-21 transcript”. Further, the “pulldown of 32P 5′-end labeled pre-miR-21 WT RNA” value in the assay on pre-miR-21 WT RNA [4] is given as “greater enrichment of the RNA compared to 9”.
As to `C#CCN(CC(=O)N(CCNC(=O)CCCCC1SCC2NC(=O)NC21)CC(N)=O)C(=O)CN(CCNC(=O)CCCc1ccc(N(CCCl)CCCl)cc1)C(C)=O` (stereo not drawn) [Compound 9, reference compound], the “enrichment of the pre-miR-21 transcript by Chem-CLIP” value in the assay on pre-miR-21 [3] (10 μM) is reported as “no enrichment”.
For `CCOC(=O)C1=C(Nc2ccccc2)SC(=Cc2ccc(OCCOCCOCCOCCNC(=O)CCCOc3cccc(-c4nc5ccc(-c6nc7cc(N8CCN(C)CC8)ccc7[nH]6)cc5[nH]4)c3)c(O)c2)C1=O` [Compound 25], the “effect on pre-miR-210” value in the assay on pre-miR-210 is “Cleavage of pre-miR-210”.
For `CN1CCN(c2ccc3nc(-c4ccc5nc(-c6cccc(OCCCC(=O)NCCCN=[N+]=[N-])c6)[nH]c5c4)[nH]c3c2)CC1` [Compound 26], in the assay on pre-miR-210, the “effect on mature miR-210 levels” value is reported as “inhibits mature miR-210 levels” and the “effect on pre-miR-210” value is reported as “boosts levels of pre-miR-21”.
